Target: T1, human recombinant CBL-b (human Biotin CBL-b recombinant protein a.a. 39-426) (Homo sapiens, UniProt Q13191)
T1 construct: human Biotin CBL-b recombinant protein a.a; 39-426; Biotin (biotinylated); made in house
Assay: Biochemical assay for CBL-b inhibition (ligand displacement TR-FRET)
Assay type: binding
Details: 50 nM CBL-b, 0.3 μM Bodipy FL-Probe, read-out: IC50 (CBL-b inhibition, group)
Experimental: The inhibitory activity of the test compounds was assessed by Ligand displacement TR-FRET assay. The human recombinant CBL-b (human Biotin CBL-b recombinant protein a.a. 39-426; synthesised in-house) was diluted in enzyme assay buffer (20 mM HEPES, 150 mM NaCl, 0.01% Triton X, 0.01% BSA, 0.5 mM TCEP) in a 10 μl volume and plated in 384-well plates (Cat #781075, Greiner) to a final concentration of 50 nM. The enzyme/compound mixture was incubated at RT for 60 min. The Bodipy FL-Probe described in WO 2020/210508 (synthesized in-house) diluted in enzyme assay buffer was added to the plate and incubated for 60 min RT, the final probe concentration was 0.3 μM. After 60 min incubation, 10 μl of detection mix (Terbium Streptavidin, (Cat #PV3576, Invitrogen) diluted in 1× Lance buffer) was added and incubated for 60 min at room temperature. Time-resolved fluorescence (excitation, 320 nm; emission donor, 615 nm; emission acceptor, 665 nm) was monitored by using 2030 multilabel reader Victor5 (PerkinElmer). The IC50 (concentration for half maximal inhibition) and % maximum inhibition of the compounds were estimated by fitting the dose response data to a sigmoidal curve fitting equation using Graph pad Prism software V. 8.

T1 sequence (Q13191 39-426): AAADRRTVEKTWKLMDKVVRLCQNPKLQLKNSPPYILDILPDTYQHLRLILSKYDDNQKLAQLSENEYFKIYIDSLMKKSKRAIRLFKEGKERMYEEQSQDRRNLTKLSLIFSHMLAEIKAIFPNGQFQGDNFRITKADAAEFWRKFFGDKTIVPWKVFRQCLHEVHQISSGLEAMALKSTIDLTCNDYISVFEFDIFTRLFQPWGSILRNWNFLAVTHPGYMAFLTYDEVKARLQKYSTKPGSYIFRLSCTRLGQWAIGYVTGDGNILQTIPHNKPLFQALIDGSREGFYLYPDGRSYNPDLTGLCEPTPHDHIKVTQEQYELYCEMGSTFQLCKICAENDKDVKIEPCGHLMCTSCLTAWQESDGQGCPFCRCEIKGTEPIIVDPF

SMILES	IC50
CC1CCC(C)N(Cc2cc(N3Cc4ccc(C5(Cc6nncn6C)COC5)cc4C3=O)nc(C(F)(F)F)c2)C1 (single isomer, unassigned) [Compound 139]	300 to 5000 nM
CC1CCC(C)N(Cc2cc(N3Cc4ccc(C5(Cc6nncn6C)COC5)cc4C3=O)nc(C(F)(F)F)c2)C1 (single isomer, unassigned) [Compound 140]	300 to 5000 nM
C[C@H]1CCCN(Cc2cc(N3CCCC3)cc(N3Cc4ccc(C5(Cc6nncn6C)COC5)cc4C3=O)c2)C1 [Compound 21, (S)-6-(3-((4-Methyl-4H-1,2,4-triazol-3-yl)methyl)oxetan-3-yl)-2-(3-((3-methyl-piperidin-1-yl)methyl)-5-(pyrrolidin-1-yl)phenyl)isoindolin-1-one]	300 to 5000 nM
Cc1cc(CNCC(F)(F)F)cc(N2Cc3ccc(C4(Cc5nncn5C)COC4)cc3C2=O)c1 [Compound 22, 6-(3-((4-Methyl-4H-1,2,4-triazol-3-yl)methyl)oxetan-3-yl)-2-(3-methyl-5-(((2,2,2-trifluoroethyl)amino)methyl)phenyl)isoindolin-1-one]	300 to 5000 nM
Cn1cnnc1CC1(c2ccc3c(c2)C(=O)N(c2cc(CN4CCC5(CCCO5)CC4)cc(C(F)(F)F)n2)C3)COC1 [Compound 32, 2-(4-((1-Oxa-8-azaspiro[4.5]decan-8-yl)methyl)-6-(trifluoromethyl)pyridin-2-yl)-6-(3-((4-methyl-4H-1,2,4-triazol-3-yl)methyl)oxetan-3-yl)isoindolin-1-one]	300 to 5000 nM
Cn1cnnc1CC1(c2ccc3c(c2)C(=O)N(c2cc(C(=O)N4CC[C@H](O)C4)cc(C(F)(F)F)n2)C3)COC1 [Compound 36, (S)-2-(4-(3-Hydroxypyrrolidine-1-carbonyl)-6-(trifluoromethyl)pyridin-2-yl)-6-(3-((4-methyl-4H-1,2,4-triazol-3-yl)methyl)oxetan-3-yl)isoindolin-1-one]	300 to 5000 nM

Next, values leading:

IC50	SMILES
< 80 nM	CC1CCC(C)N(Cc2cc(N3Cc4ccc(C5(Cc6nncn6C)COC5)cc4C3=O)nc(C(F)(F)F)c2)C1 (single isomer, unassigned) [Compound 141]
300 to 5000 nM	CC1CCC(C)N(Cc2cc(N3Cc4ccc(C5(Cc6nncn6C)COC5)cc4C3=O)nc(C(F)(F)F)c2)C1 (single isomer, unassigned) [Compound 142]
80 to 300 nM	C[C@H]1CCCN(Cc2cc(Cl)nc(N3Cc4ccc([C@@H](Cc5nncn5C)C(F)(F)F)cc4C3=O)c2)C1 (single isomer, unassigned) [Compound 180]
< 80 nM	Cn1cnnc1CC1(c2ccc3c(c2)C(=O)N(c2cc(CNC4CCCC4O)cc(Cl)n2)C3)COC1 (single isomer, unassigned) [Compound 209, 2-(6-Chloro-4-(((2-hydroxycyclopentyl)amino)methyl)pyridin-2-yl)-6-(3-((4-methyl-4H-1,2,4-triazol-3-yl)methyl)oxetan-3-yl)isoindolin-1-one]
80 to 300 nM	C[C@@H](NCc1cscn1)c1cc(Cl)nc(N2Cc3ccc(C4(Cc5nncn5C)COC4)cc3C2=O)c1 (single isomer, unassigned) [Compound 217]
80 to 300 nM	C[C@@H](NC[C@H]1CCCO1)c1cc(Cl)nc(N2Cc3ccc(C4(Cc5nncn5C)COC4)cc3C2=O)c1 (single isomer, unassigned) [Compound 220]
300 to 5000 nM	C[C@@H](NCc1ccccn1)c1cc(Cl)nc(N2Cc3ccc(C4(Cc5nncn5C)COC4)cc3C2=O)c1 (single isomer, unassigned) [Compound 241]
80 to 300 nM	C[C@H](NCc1ccccn1)c1cc(Cl)nc(N2Cc3ccc(C4(Cc5nncn5C)COC4)cc3C2=O)c1 (single isomer, unassigned) [Compound 242]
80 to 300 nM	Cn1cnnc1C[C@]1(c2ccc3c(c2)C(=O)N(c2cc(CNCC4CCC4)cc(Cl)n2)C3)C[C@@H](C#N)C1 (single isomer, unassigned) [Compound 245]

Reference: US20260226073A1 (AURIGENE ONCOLOGY LIMITED, priority 2023, published 2026)
